Measured values: publication PMC6143625, “A high throughput screen for next-generation leads targeting malaria parasite transmission” (Nature Communications, 2018)

Assay: Stability analysis of DDD599/BPCA (pH buffers, simulated gastric fluid, glutathione)
Type: physicochemical
Procedure: DMPK analyses were performed by the Dundee University Drug Discovery Unit and BPCA/DDD599 stability analysis were undertaken by chemists at GlaxoSmithKline using in-house, standardised approaches.
123 Supplementary Table 1. Stability analysis of DDD599/BPCA pH10 Ox pH10 pH6 Ox pH6 pH4 Ox pH4 SGF Ox SGF GSH
Additionally, it was also tested in the presence of glutathione. Green text denoted acceptable 127 stability and red text denotes unacceptable stability under test conditions. At pH10 regardless of the presence of 128 H2O2, DDD599/BPCA was unfavourably unstable. […]

Compound `O=C(CCl)Nc1ccc(Br)cc1` [BPCA, N-(4-bromophenyl)-2-chloroacetamide] has a remaining at 24 h (Britton Robinson pH4 buffer + 20M% H2O2, pH 4, pH4 Ox) of 100%, a remaining at 24 h (Britton Robinson pH4 buffer, pH 4) of 100% and a half-life (Britton Robinson pH4 buffer, pH 4, pH4 = Britton Robinson pH4) of over 41.7 days. For the same compound, the remaining at 24 h (Britton Robinson pH6 buffer + 20M% H2O2, pH 6, pH6 Ox) was 100%, the remaining at 24 h (Britton Robinson pH6 buffer, pH 6) was 100% and the remaining at 24 h (Britton Robinson pH10 buffer + 20M% H2O2, pH 10, pH10 Ox) was 87%. For the same compound, the remaining at 24 h (Britton Robinson pH10 buffer, pH 10) was 87%, the “t10% degradation / hours” value (GSH) was under 1 h and the remaining at 24 h (Phosphate buffer pH7.4 with 5mM Glutathione, pH 7.4, GSH) was 0%. For the same compound, the “t10% degradation / hours” value (SGF) was 118 h, the half-life (SGF = Simulated Gastric Fluid) was 25.3 days and the “t10% degradation / hours” value (SGF Ox) was 512 h. For the same compound, the half-life (SGF Ox = Simulated Gastric Fluid + 20M% H2O2) was over 41.7 days, the remaining at 24 h (Simulated Gastric Fluid + 20M% H2O2, SGF Ox) was 99% and the remaining at 24 h (Simulated Gastric Fluid, SGF) was 98%. For the same compound, the “t10% degradation / hours” value (pH4) was over 1000 h, the half-life (pH 4, pH4 Ox = Britton Robinson pH4 buffer + 20M% H2O2) was over 41.7 days and the “t10% degradation / hours” value (pH4 Ox) was over 1000 h. The “t10% degradation / hours” value (pH6) was over 1000 h, the half-life (pH 6, pH6 = Britton Robinson pH6 buffer) was over 41.7 days and the half-life (pH 6, pH6 Ox = Britton Robinson pH6 buffer + 20M% H2O2) was over 41.7 days. For the same compound, the “t10% degradation / hours” value (pH6 Ox) was over 1000 h, the half-life (pH 7.4, GSH = Phosphate buffer pH7.4 with 5mM Glutathione) was under 0.0417 days and the “t10% degradation / hours” value (pH10) was 18 h. The half-life (pH 10, pH10 = Britton Robinson pH10 buffer) was 3.92 days, the half-life (pH 10, pH10 Ox = Britton Robinson pH10 buffer + 20M% H2O2) was 3.83 days and the “t10% degradation / hours” value (pH10 Ox) was 18 h.
